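Five compound concentrations were applied to cells in 96-well plates for 48 hours; endpoints were derived by simple linear interpolation of the resulting dose-response curve. GI50: concentration for 50% inhibition of growth.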 Active and inactive are the calls of the source. No stated cut-off is given here; in the data, active = GI50 up to about 1.1 µM and inactive = higher.
How the values were obtained:
Assay in all cases: growth of human tumour cells (NCI), 48 h
[1] = tested on: NCI-H460
[2] = tested on: COLO 205
[3] = tested on: NCI-H522
[4] = tested on: OVCAR-4
[5] = tested on: LOX IMVI
[6] = tested on: 786-0
[7] = tested on: OVCAR-3
[8] = tested on: NCI-H226
[9] = tested on: SNB-75
[10] = tested on: UO-31
[11] = tested on: U-251
[12] = tested on: MOLT-4
[13] = tested on: UACC-257
[14] = tested on: HOP-62
[15] = tested on: SF-268
[16] = tested on: SN12C
[17] = tested on: SK-MEL-5
[18] = tested on: A498
[19] = tested on: MDA-N

SMILES | GI50 [1] | GI50 [2] | GI50 [3] | GI50 [4] | GI50 [5] | GI50 [6] | GI50 [7] | GI50 [8] | GI50 [9] | GI50 [10] | GI50 [11] | GI50 [12] | GI50 [13] | GI50 [14] | GI50 [15] | GI50 [16] | GI50 [17] | GI50 [18] | GI50 [19]
Cn1c2c3c(F)c(F)ccc3nc-2cc2ccccc21 | 1.04 µM (active) | 2.08 µM (inactive) | 3.03 µM (inactive) | 10.1 µM (inactive) | 1.07 µM (active) | 0.519 µM (active) | 2.33 µM (inactive) | 2.59 µM (inactive) | 0.805 µM (active) | 1.36 µM (inactive) | 1.58 µM (inactive) | 0.324 µM (active) | 3.83 µM (inactive) | 1.35 µM (inactive) | 3.24 µM (inactive) | 0.861 µM (active) | 3.04 µM (inactive) | 0.443 µM (active) | 3.64 µM (inactive)
O=C(O)C1(Nc2ccc(Cl)cc2)CCCC1 | > 100 µM (inactive) | 33 µM (inactive) | > 100 µM (inactive) | > 100 µM (inactive) | > 100 µM (inactive) | > 100 µM (inactive) | > 100 µM (inactive) | > 100 µM (inactive) | > 100 µM (inactive) | > 100 µM (inactive) | > 100 µM (inactive) |  |  | > 100 µM (inactive) | > 100 µM (inactive) | > 100 µM (inactive) | > 100 µM (inactive) | > 100 µM (inactive) | > 100 µM (inactive)
CCN(CC)CCSc1nc2c(c(=N)n1-c1ccccc1)c(=S)n(-c1ccccc1)c(=S)n2-c1ccccc1 | 1.91 µM (inactive) | 1.66 µM (inactive) | 0.843 µM (active) | 3.47 µM (inactive) | 1.46 µM (inactive) | 0.441 µM (active) | 1.64 µM (inactive) | 25.7 µM (inactive) | 2.19 µM (inactive) |  | 2.37 µM (inactive) | 0.194 µM (active) | 1.72 µM (inactive) | 2.85 µM (inactive) | 1.67 µM (inactive) | 1.73 µM (inactive) | 3.24 µM (inactive) | 8.85 µM (inactive) | 2.36 µM (inactive)
CS(=O)(=O)OC1CCN(C2(c3cccc(O)c3)CCCCC2)CC1 | 48.5 µM (inactive) | 32.6 µM (inactive) | > 100 µM (inactive) | 43 µM (inactive) | 21.8 µM (inactive) | 27.4 µM (inactive) | > 100 µM (inactive) | > 100 µM (inactive) | > 100 µM (inactive) | 44.7 µM (inactive) | 64.7 µM (inactive) | 27.8 µM (inactive) | 38.4 µM (inactive) | 36.1 µM (inactive) | 71.3 µM (inactive) | 32.9 µM (inactive) | 43.5 µM (inactive) | > 100 µM (inactive) | 30.5 µM (inactive)
O=c1[nH]c2c(c(=O)[nH]1)SC(c1ccccc1)C2 (stereo not given) | > 100 µM (inactive) | > 100 µM (inactive) | > 100 µM (inactive) | > 100 µM (inactive) | > 100 µM (inactive) | > 100 µM (inactive) | > 100 µM (inactive) | > 100 µM (inactive) | 86.9 µM (inactive) | > 100 µM (inactive) | > 100 µM (inactive) | > 100 µM (inactive) | > 100 µM (inactive) | > 100 µM (inactive) | > 100 µM (inactive) |  | > 100 µM (inactive) | > 100 µM (inactive) | > 100 µM (inactive)
CN(C)CC1CCCc2ccccc2C1=O (stereo not given) | 19.6 µM (inactive) | 5.14 µM (inactive) | 0.16 µM (active) | 0.839 µM (active) | 2.16 µM (inactive) | 1.47 µM (inactive) | 1.82 µM (inactive) | 21.8 µM (inactive) | 41.8 µM (inactive) | 1.9 µM (inactive) | 1.6 µM (inactive) | 0.269 µM (active) | 6.1 µM (inactive) | 16.6 µM (inactive) | 2.21 µM (inactive) | 7.4 µM (inactive) | 4.4 µM (inactive) | 19.5 µM (inactive) | 1.58 µM (inactive)
C[C@]12CC/C(=N\OCCN3CCCCC3)C=C1CCC1C2CC[C@@]2(C)C1CC[C@]2(C)O (stereo not given in full) | 5.26 µM (inactive) | 8.17 µM (inactive) | 2.24 µM (inactive) | 19.8 µM (inactive) | 4.11 µM (inactive) | 5.14 µM (inactive) | 17 µM (inactive) | 3.3 µM (inactive) | 7.35 µM (inactive) | 11.1 µM (inactive) | 10.7 µM (inactive) | 2.64 µM (inactive) | 5.57 µM (inactive) | 15.2 µM (inactive) | 13.4 µM (inactive) | 15.3 µM (inactive) | 16.6 µM (inactive) | 3.14 µM (inactive) | 3.32 µM (inactive)
CC(C)C(OC(=O)c1ccc(NCc2cc(O)ccc2O)cc1)C(C)C | 3.5 µM (inactive) | 0.865 µM (active) | 0.16 µM (active) | 1.47 µM (inactive) | 0.776 µM (active) | 1.14 µM (inactive) | 1.36 µM (inactive) | 1.29 µM (inactive) | 0.746 µM (active) | 1.17 µM (inactive) | 1.14 µM (inactive) | 0.243 µM (active) | 1.39 µM (inactive) | 7.94 µM (inactive) | 1.87 µM (inactive) | 2.42 µM (inactive) | 2.2 µM (inactive) | 2.25 µM (inactive) | 2.39 µM (inactive)
Nc1cc(CO)cc(Nc2c3ccccc3nc3ccccc23)c1 | 25.7 µM (inactive) | 11.6 µM (inactive) | 6.59 µM (inactive) | 16 µM (inactive) | 16.7 µM (inactive) | 16.7 µM (inactive) | 18.2 µM (inactive) | 18.2 µM (inactive) | 15.8 µM (inactive) | 18.4 µM (inactive) | 15.1 µM (inactive) | 4.5 µM (inactive) | 15.1 µM (inactive) | 14.7 µM (inactive) | 17.9 µM (inactive) | 18.9 µM (inactive) | 17 µM (inactive) | 24.6 µM (inactive) | 20.6 µM (inactive)
O=C1C2Cc3c(n(C(=O)c4ccccc4)c4ccccc34)CC2C(=O)N1c1ccc(Nc2ccc(N3C(=O)C4Cc5c(n(C(=O)c6ccccc6)c6ccccc56)CC4C3=O)cc2)cc1 (stereo not given) | > 100 µM (inactive) | > 100 µM (inactive) | > 100 µM (inactive) | > 100 µM (inactive) | > 100 µM (inactive) | > 100 µM (inactive) | > 100 µM (inactive) | > 100 µM (inactive) | > 100 µM (inactive) | > 100 µM (inactive) | > 100 µM (inactive) | > 100 µM (inactive) | > 100 µM (inactive) | > 100 µM (inactive) | > 100 µM (inactive) | > 100 µM (inactive) | 58.1 µM (inactive) | > 100 µM (inactive) | > 100 µM (inactive)
CC1(C)C=C(S(=O)(=O)c2ccccc2)Oc2ccccc2O1 | 35.2 µM (inactive) | 18.8 µM (inactive) | 40.9 µM (inactive) | 37.4 µM (inactive) | 16.3 µM (inactive) | 44.6 µM (inactive) | 50.4 µM (inactive) | 46.6 µM (inactive) | 16.7 µM (inactive) | 20.7 µM (inactive) | 45.4 µM (inactive) | 25.2 µM (inactive) | 38 µM (inactive) | > 100 µM (inactive) | 61.1 µM (inactive) | 64.9 µM (inactive) | 15.4 µM (inactive) | 30.8 µM (inactive) | 35.7 µM (inactive)
CNC(=O)N(CCC#N)CCCN(C(=O)N(C)C)c1ccccc1 | > 100 µM (inactive) | > 100 µM (inactive) | > 100 µM (inactive) | > 100 µM (inactive) | > 100 µM (inactive) | > 100 µM (inactive) | > 100 µM (inactive) | > 100 µM (inactive) | > 100 µM (inactive) | > 100 µM (inactive) | > 100 µM (inactive) | > 100 µM (inactive) | > 100 µM (inactive) | > 100 µM (inactive) | > 100 µM (inactive) | > 100 µM (inactive) | > 100 µM (inactive) | > 100 µM (inactive) | > 100 µM (inactive)
CC[C@]12C=CCN3CC[C@@]4(c5cc(N=O)c(OC)cc5N(C)[C@H]4[C@@](O)(C(=O)OC)[C@@H]1OC(C)=O)[C@@H]32 | 92.3 µM (inactive) | 38.2 µM (inactive) | 18.5 µM (inactive) | > 100 µM (inactive) | 34.1 µM (inactive) | 42.9 µM (inactive) | 48 µM (inactive) | > 100 µM (inactive) | 57.7 µM (inactive) | > 100 µM (inactive) | 16.7 µM (inactive) | 35.6 µM (inactive) | > 100 µM (inactive) | 61 µM (inactive) | > 100 µM (inactive) | 34.3 µM (inactive) | 37.9 µM (inactive) | > 100 µM (inactive) | 20.1 µM (inactive)
CCC1(O)C=CC(=O)C=C1 | 23.4 µM (inactive) | 42.4 µM (inactive) | 10.3 µM (inactive) | 23.1 µM (inactive) | 11.6 µM (inactive) | 18.4 µM (inactive) | 27.5 µM (inactive) | 25.5 µM (inactive) | 33.3 µM (inactive) | 18.1 µM (inactive) | 15.3 µM (inactive) | 47.3 µM (inactive) | 18.8 µM (inactive) | 27.7 µM (inactive) | 20.7 µM (inactive) | 32.9 µM (inactive) | 31.8 µM (inactive) | 24.5 µM (inactive) | 28.8 µM (inactive)
Nc1c(S(=O)(=O)O)cc(Nc2cccc(S(=O)(=O)/C=C/S(=O)(=O)O)c2)c2c1C(=O)c1ccccc1C2=O | > 100 µM (inactive) | > 100 µM (inactive) | > 100 µM (inactive) | > 100 µM (inactive) | > 100 µM (inactive) | > 100 µM (inactive) | > 100 µM (inactive) | > 100 µM (inactive) | 34.7 µM (inactive) |  | > 100 µM (inactive) | > 100 µM (inactive) | > 100 µM (inactive) | > 100 µM (inactive) | > 100 µM (inactive) | > 100 µM (inactive) | > 100 µM (inactive) | > 100 µM (inactive) | > 100 µM (inactive)

Source: ChEMBL document CHEMBL1201862, “PubChem BioAssay data set” (2004)
